Key:
[1] = test system: carcinoma of the breast 4T1; assay: 2H MRI visualisation of 4T1 breast carcinoma in mice in vivo; set-up: species or system mice Balb/c
C6 glioma = assay: 2H MRI visualisation of glioma C6 in rats in vivo; set-up: species or system Wistar rats; settings: 4 hours after 150 mg i.p.
Description: (§1) In the examples below, the MRI scanner Bruker BioSpec BC70/30 USR with the constant field of 7.05 T, equipped with a surface transmitting-and-receiving coil with a diameter of 3 cm and a scan depth of ca. 1 cm was used.
(§2) To register deuterium image the FLASH (Fast low angle shot) pulse sequence was used.
(§3) For experiments with the broadband excitation the following settings were used: the excitation frequency was determined by ^2H NMR spectrum and was sfo1≈46.1745 MHz, a rectangular excitation pulse with a width of 1300 Hz and a power of 36 dB, the flip angle FA=30°, the time TR=11.8 MS, echo time TE=4.4 msec, a scan area of 10 cm×10 cm, scan matrix, 50×50, slice thickness 3 cm, bandwidth of 12500 Hz, total scan time 10 minutes (1030 averages).
In this example, experiments were conducted on Wistar rats inoculated with C6 glioma and in healthy Wistar rats.
An animal with the weight of 210 g was injected intraperitoneally a solution of 150 mg of 2-amino-2-(CD3)-3,3,3-D3-propionic acid in 1.5 ml of a saline solution. After injection, the animal was kept in a separate cage with free access to food and water. To register the MR images and spectra an animal was immobilized with isoflurane. The surface transmitting-and-receiving coil was fixed over the head of the rat.

[2] = test system: carcinoma of the breast 4T1; assay: 2H MRI visualisation of 4T1 breast carcinoma in mice in vivo; set-up: species or system mice Balb/c; remark: listed apart in the source
Description: as §1, §2, §3
For experiments with selective excitation the following settings were used: excitation frequency sfo1=46.1745 MHz, a rectangular excitation pulse with a width of 130 Hz and a power of 48 dB, the flip angle FA=30°, the repetition time TR=25 MS, echo time TE=10 MS, a scanning area of 10 cm×10 cm, scan matrix 50×50, slice thickness 3 cm, bandwidth of 25,000 Hz, total scan time 10 minutes.
In this example, experiments were conducted on mice Balb/c inoculated with carcinoma of the breast 4T1 (injection of 5×10^5 cells/60 μl under the left front paw for 10 days before experiment) and in healthy Balb/c mice.
An animal no. 1-5 weighing 20 g was injected intraperitoneally with a solution of 20 mg of 2-amino-2-(CD3)-3,3,3-D3-propionic acid in 0.5 ml of a saline solution. An animal no. […] weighing 20 g was injected intraperitoneally with a solution of 10 mg (mouse no. 4) or 5 mg (mouse no. 5) 2-amino-2-(CD3)-3,3,3-D3-propionic acid in 0.25 ml of a saline solution. After injection, the animal was kept in a separate cage for a specified time (no. 1 with the tumor and no. 2 without the tumor: 40 min; no. 3 with the tumor: 115 min; no. 4 with the tumor: 20 and 360 min; no. 5 and no. 6 with the tumor: 30 min). To register the MR images and spectra an animal was immobilized with isoflurane. The surface transmitting-and-receiving coil was fixed on the body of the mouse on the dorsal side sequentially in two positions (thoracic, kidneys). The FIGS. 3-7 show ^2H MR images obtained with the use of the broadband excitation of the deuterium nuclei.

Structure (SMILES): [2H]C([2H])([2H])C(N)(C(=O)O)C([2H])([2H])[2H] [2-amino-2-(CD3)-3,3,3-D3-propionic acid]
- localization of the deuterium signal (2H MRI) ([1]; mouse no. 4 with tumor, 20 min after 20 mg i.p.): localized in the region corresponding to the most recently developed and actively growing parts of the tumor, and also in the area corresponding to the liver
- localization of the deuterium signal (2H MRI) ([1]; mouse no. 4 with tumor, 360 min after 20 mg i.p.): localized in the region corresponding to the most recently developed and actively growing parts of the tumor
- localization of the deuterium signal (2H MRI) ([1]; mouse no. 5 with tumor, 30 min after 10 mg i.p.): localized in the region corresponding to individual parts of the tumor
- localization of the deuterium signal (2H MRI) ([1]; mouse no. 6 with tumor, 30 min after 5 mg i.p.): localized in the region corresponding to individual parts of the tumor
- localization of the deuterium signal (2H MRI) (C6 glioma; rat with C6 glioma): localized in the region corresponding to the tumor
- localization of the deuterium signal (2H MRI) (C6 glioma; rats without tumors): does not show a clear localization
- localization of the deuterium signal (2H MRI) ([2]; control mouse no. 2 without the tumor, 40 min after 20 mg i.p.): localized in the region corresponding to the liver
- allowable time range between administration and detection of deuterium ([2]; mice with 4T1 tumor, 20 mg i.p., FIGS. 3, 5, 7 and 8): 20 to 360 min
- signal/noise ratio in the kidneys ([2]; mouse no. 1, 40 min after 20 mg i.p., broadband excitation): approximately 25
- localization of the deuterium signal (2H MRI) ([2]; mouse no. 1 with tumor, 40 min after 20 mg i.p.): localized in the region corresponding to the tumor
- signal/noise ratio in the region of the tumor ([2]; mouse no. 1 with tumor, 40 min after 20 mg i.p., broadband excitation): approximately 6
- signal/noise ratio in the region of the tumor ([2]; mouse no. 1 with tumor, 40 min after 20 mg i.p., selective excitation): about 4
- localization of the deuterium signal (2H MRI) ([2]; mouse no. 3 with tumor, 115 min after 20 mg i.p.): localized in the region corresponding to the tumor and in the area corresponding to the liver
- visibility of excised tumor on deuterium MR image ([2]; tumors excised from mouse no. 3, 150 min after injection of 20 mg): clearly visible on deuterium MR image
